Measurements published in patent publication US20200038399A1, “FORMULATIONS, METHODS, KIT, AND DOSAGE FORMS FOR TREATING BACTERIAL INFECTION” (Motif BioSciences Inc., priority 2016, published 2020).
Several values for one entry are separate records, joined by “and”; a condition that tells them apart may be missing. Equal values may be shown once. Where a name gives a salt, the structure may show the parent alone.

How the values were obtained:
[1] = test system: Gram-positive bacteria; conditions: cited from earlier work
[2] = in vivo; cited from earlier work
[3] = molecular target: hERG channel (Homo sapiens, UniProt Q12809); conditions: cited from earlier work
[4] = water at 20° C.; cited from earlier work
[5] = cited from earlier work
[6] = 1% solution in water; cited from earlier work
[7] = test system: Pneumocystis jirovecii; assay: in vivo Pneumocystis pneumonia model, corticosteroid-treated rats; conditions: 50 mg/kg/d oral, once a day for 10 days
Protocol: Compound solutions were prepared just before use.
The drugs were given once a day for 10 consecutive days. The final concentration of DMSO in diluted drug solutions was between 1.5 and 15%. Control animals were dosed with sterile water with 15% of DMSO. At the end of the experiment, therapeutic efficacy was assessed by counting P. jirovecii in lung homogenates and comparing the counts with those of the untreated controls. Twenty-four hours after the end of the treatment, animals were sacrificed and the lung homogenized in a Stomacher-400 blender as previously described (European Concerted Action on Pneumocystis Research. Parasitology Today 12: 245-9, 1996, the entire disclosure of which is herein incorporated by reference). Parasite quantitation was performed on air-dried smears stained with toluidine blue 0 (cystic forms) or RAL-555 stains (vegetative, precystic and cystic forms).

[8] = test system: S. aureus 101; assay: MIC determination; format: cell-based, Staphylococcus aureus; conditions: Staphylococcus aureus, 101, 18 h; read-out: Minimum inhibitory concentrations (MIC)
Summary of the method: (§1)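 Visible-growth endpoint after 18 h, 37 °C. Cation-adjusted Mueller-Hinton broth was used for K. pneumoniae and S. aureus in ambient air; H. influenzae (HTM) and M. catarrhalis (Brain Heart Infusion) were incubated under 5% CO2.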

[9] = test system: S. pneumoniae 1/1; assay: MIC determination; format: cell-based, Streptococcus pneumoniae; conditions: Streptococcus pneumoniae; S. pneumoniae 1/1; 18 hours at 37° C., 5% CO2; read-out: Minimum inhibitory concentrations (MIC)
[10] = test system: Haemophilus influenzae ATCC 49766; assay: MIC determination; format: cell-based; conditions: Haemophilus influenzae, ATCC49766, 18 h, read-out: Minimum inhibitory concentrations (MIC)
Summary of the method: as §1

[11] = test system: Klebsiella pneumoniae ATCC 33495; assay: MIC determination; format: cell-based; conditions: Klebsiella pneumoniae, ATCC33495; K. pneumonia 33495; 18 hours at 37° C.; read-out: Minimum inhibitory concentrations (MIC)
Summary of the method: as §1

[12] = test system: Moraxella catarrhalis RA 21; assay: MIC determination; format: cell-based; conditions: Moraxella catarrhalis, RA21; M. catarrhalis RA 21; 18 hours at 37° C., 5% CO2; read-out: Minimum inhibitory concentrations (MIC)
Summary of the method: as §1

[13] = test system: Staphylococcus aureus ATCC 25923; assay: MIC determination; format: cell-based; conditions: Staphylococcus aureus, ATCC25923; S. aureus 25923; 18 hours at 37° C.; read-out: Minimum inhibitory concentrations (MIC)
Summary of the method: as §1

[14] = test system: Streptococcus pneumoniae ATCC 49619; assay: MIC determination; format: cell-based; conditions: Streptococcus pneumoniae, ATCC49619; S. pneumoniae 49619; 18 hours at 37° C., 5% CO2; read-out: Minimum inhibitory concentrations (MIC)
[15] = test system: Haemophilus influenzae ATCC 49766; assay: checkerboard synergy assay with iclaprim; format: cell-based; conditions: antibiotic in combination with iclaprim; H. influenzae 49766
[16] = test system: Klebsiella pneumoniae ATCC 33495; assay: checkerboard synergy assay with iclaprim; format: cell-based; conditions: antibiotic in combination with iclaprim; K. pneumoniae 33495
[17] = test system: Moraxella catarrhalis RA 21; assay: checkerboard synergy assay with iclaprim; format: cell-based; conditions: antibiotic in combination with iclaprim; M. catarrhalis RA 21
[18] = test system: Staphylococcus aureus ATCC 25923; assay: checkerboard synergy assay with iclaprim; format: cell-based; conditions: antibiotic in combination with iclaprim; S. aureus 25923
[19] = test system: Streptococcus pneumoniae ATCC 49619; assay: checkerboard synergy assay with iclaprim; format: cell-based; conditions: antibiotic in combination with iclaprim; S. pneumoniae 49619
[20] = test system: S. aureus 101; assay: checkerboard synergy assay with iclaprim; format: cell-based, Staphylococcus aureus; conditions: antibiotic in combination with iclaprim
[21] = test system: S. pneumoniae 1/1; assay: checkerboard synergy assay with iclaprim; format: cell-based, Streptococcus pneumoniae; conditions: antibiotic in combination with iclaprim
[22] = in vivo; cited from earlier work; remark: listed apart in the source
[23] = test system: Staphylococcus aureus, Streptococcus pneumoniae, Haemophilus influenzae, Moraxella catarrhalis and Klebsiella pneumoniae; assay: checkerboard synergy assay with iclaprim, strains pooled; format: cell-based
Protocol: The synergistic potential of iclaprim against Gram-positive and Gram-negative bacteria was determined using the checkerboard assay as described in Eliopoulos GM and Moellering, Jr. RC (1991), Antimicrobial combinations, pp. 432-492, in V. Lorian (ed.), Antibiotics in laboratory medicine, 3rd Ed., The Williams & Wilkins Co., Baltimore, the entire disclosure of which is herein incorporated by reference, allowing multiple test concentrations of iclaprim to be assayed in the presence of various concentrations of the other antibiotic in microtiter plates. The same growth media and conditions were used as described in 3.2 below.
Two different dilutions were used for iclaprim depending on the MIC determined for the bacterium. […] Iclaprim and the other antibiotic being tested were also dispensed alone in the last row and in the last column, respectively, as controls.
The Fractional Inhibitory Concentrations (FIC) for each added agent were calculated and used to determine the sum of FIC (ΣFIC) indicative of the synergistic potential of a given combination as described in Veyssier P. (1999), Inhibiteurs de la dihydrofolate reductase, nitrohétérocycles (furanes) et 8-hydroxyquinoleines, pp. 995-1027, in A. Bryskier (ed.), Antibiotiques agents antibatériens et antifongiques, 1st Ed., Ellipses Edition Marketing SA, Paris, the entire disclosure of which is herein incorporated by reference. Synergy was defined whereby the ΣFIC was <0.5, indifference (no synergy nor antagonism) whereby ΣFIC was ≥0.5 but ≤4, and antagonism whereby ΣFIC was >4. Additivity as a special form of indifference was defined whereby the ΣFIC was ≥0.5 but <1, for example as described in Stevens, D L et al. (1998), In vitro antimicrobial effects of various combinations of penicillin and clindamycin against four strains of Streptococcus pyogenes, J. Antimicrob. Chemother. 42: 1266-1268, the entire disclosure of which is herein incorporated by reference.

[24] = rat lung, single rat, listed as TMP, 50 mg/kg/day
[25] = single rat, listed as TMP, 50 mg/kg/day

hERG channel, sequence (Q12809 whole entry): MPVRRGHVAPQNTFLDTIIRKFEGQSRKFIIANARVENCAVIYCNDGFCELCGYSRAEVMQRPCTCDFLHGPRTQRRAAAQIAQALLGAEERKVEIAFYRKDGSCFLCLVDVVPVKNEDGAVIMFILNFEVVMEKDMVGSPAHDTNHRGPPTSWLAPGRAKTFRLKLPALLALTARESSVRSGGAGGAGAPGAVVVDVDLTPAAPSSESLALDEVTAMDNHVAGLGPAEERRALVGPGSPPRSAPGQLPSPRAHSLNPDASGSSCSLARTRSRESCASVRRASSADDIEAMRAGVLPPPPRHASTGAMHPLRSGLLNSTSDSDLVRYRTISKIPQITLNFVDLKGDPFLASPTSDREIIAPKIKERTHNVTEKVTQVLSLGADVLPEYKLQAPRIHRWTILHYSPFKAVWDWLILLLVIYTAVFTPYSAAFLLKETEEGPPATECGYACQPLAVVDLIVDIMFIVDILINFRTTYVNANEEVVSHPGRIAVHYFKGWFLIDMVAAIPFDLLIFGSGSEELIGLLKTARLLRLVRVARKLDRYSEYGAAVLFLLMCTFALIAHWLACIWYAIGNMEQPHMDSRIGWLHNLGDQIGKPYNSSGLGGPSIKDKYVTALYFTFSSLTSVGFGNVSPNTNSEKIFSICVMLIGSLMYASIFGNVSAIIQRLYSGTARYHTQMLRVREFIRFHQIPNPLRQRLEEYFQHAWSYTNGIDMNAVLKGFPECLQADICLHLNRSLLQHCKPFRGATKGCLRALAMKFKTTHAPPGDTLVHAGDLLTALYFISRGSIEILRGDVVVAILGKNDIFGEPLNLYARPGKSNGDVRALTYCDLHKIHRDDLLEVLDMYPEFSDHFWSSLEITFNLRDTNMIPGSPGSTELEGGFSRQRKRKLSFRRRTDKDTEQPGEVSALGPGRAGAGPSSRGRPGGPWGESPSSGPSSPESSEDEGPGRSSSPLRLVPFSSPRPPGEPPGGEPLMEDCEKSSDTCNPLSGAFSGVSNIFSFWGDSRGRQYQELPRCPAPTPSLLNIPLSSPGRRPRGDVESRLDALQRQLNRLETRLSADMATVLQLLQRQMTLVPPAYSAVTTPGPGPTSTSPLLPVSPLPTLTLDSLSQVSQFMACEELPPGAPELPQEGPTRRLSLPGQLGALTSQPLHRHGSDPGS

Compound | MIC [8] | MIC [9] | MIC [10] | MIC [11] | MIC [12] | MIC [13] | MIC [14] | Con (Conclusion) [15] | Σ FIC [15] | Con (Conclusion) [16] | Σ FIC [16] | Con (Conclusion) [17] | Σ FIC [17] | Σ FIC [18] | Σ FIC [19] | Σ FIC [20] | Σ FIC [21] | other results
COc1cc(Cc2cnc(N)nc2N)c2c(c1OC)O[C@H](C1CC1)C=C2 [R-enantiomer, 5-[(2R)-2-cyclopropyl-7,8-dimethoxy-2Hchromen-5-ylmethyl] pyrimidine-2,4-diamine] | – | – | – | – | – | – | – | – | – | – | – | – | – | – | – | – | – | minimum inhibitory concentration (MIC) compared with the S-enantiomer [1]: lower minimum inhibitory concentration (MIC) than the S-enantiomer; pharmacokinetic parameters compared with the S-enantiomer [2]: more favorable pharmacokinetic parameters; hERG channel activity compared with the S-enantiomer [3]: reduced hERG channel activity
COc1cc(Cc2cnc(N)nc2N)c2c(c1OC)OC(C1CC1)C=C2 (stereo not shown) [iclaprim mesylate] | – | – | – | – | – | – | – | – | – | – | – | – | – | – | – | – | – | solubility in water [4]: approximately 10 mg/mL; pKa [5]: 7.2; pH value [6]: 4.2
COc1cc(Cc2cnc(N)nc2N)cc(OC)c1OC [Trimethoprim] | > 128 mg/L | 128 mg/L | 0.5 mg/L | 8 mg/L | 64 mg/L | 1 mg/L | 8 mg/L | Ind (Indifference (Ind)) | 1.00-1.25 | Ind (Indifference (Ind)) | 1.13-1.50 | Ad (Additivity (Ad)) | 0.75-1.13 | 1.00-1.25 | 1.00-1.25 | 1.01-1.50 | 0.56-1.03 | Mean % + SD (inhibition of cysts, TBO) ([7]; group mean): 64.2 ± 30.7%; Mean % + SD (inhibition of total parasites, Giemsa) ([7]; group mean): 78.7 ± 22.6%; Total cysts (TBO) [7, 24]: 7.16.10^+7 and 9.36.10^+6 and 1.60.10^+8 and 1.32.10^+7; Total parasites (Giemsa) [7, 24]: 1.06.10^+9 and 5.81.10^+7 and 6.76.10^+8 and 6.38.10^+7; % of inhibition vs Control (total parasites, Giemsa) [7, 25]: 51.3% and 97.3% and 69.0% and 97.1%; % of inhibition vs control (cysts, TBO) [7, 25]: 40.6% and 92.2% and 34.9% and 89.0%; t½ (plasma half-life) [22]: about 10.1 hours
Nc1ccc(S(=O)(=O)Nc2ncccn2)cc1 [Sulfadiazine] | > 128 mg/L | > 128 mg/L | > 128 mg/L | > 128 mg/L | > 128 mg/L | > 128 mg/L | > 128 mg/L | Syn (Synergy (Syn)) | 0.16-0.53 | Syn (Synergy (Syn)) | 0.27-1.50 | Syn (Synergy (Syn)) | 0.09-0.50 | 0.06-0.53 | 0.13-0.53 | 0.75-1.13 | 0.28-0.56 | synergistic potential with iclaprim ([23]; checkerboard experiments, all strains): highly synergistic; ΣFIC, range over strains ([23]; in combination with iclaprim, all the strains tested): 0.06-1.50
